The record followed here is patent publication US12059425B2, “Heterocyclic compounds and uses thereof” (Kumquat Biosciences Inc., priority 2022, dated 2024).

The subject of one test is GP2D cells. Nature of the test: Ras cellular assay, cell proliferation GP2D. Type of test: cell-based. Summed up: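 GP2D cells (G12D Ras mutant) seeded (e.g., 800/well) and treated the next day with a dilution series (e.g., 9-point, 3-fold). After approximately 5 days, viability measured by CellTiter-Glo luminescence; IC50 from four-parameter fit.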
The target in another test is T1, K-Ras G12S (Homo sapiens, UniProt P01116, G12S).
T1 construct: made in house; host or cells: E. coli, e.g. BL21 (DE3)
Put plainly: PPI-HTRF assay, K-Ras G12S / SOS1 interaction. The test is classed as biochemical. To be noted: read-out: PPI-HTRF-5 nM (K-Ras G12S IC50). The method in brief: (§1)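 Compound in DMSO is dispensed first, then GST-K-Ras plus anti-GST-Eu(K), then His-hSOS1 plus anti-6His-XL665. Plates incubate about 10 min or longer before HTRF measurement at 620 and 665 nm. IC50 values are derived from the emission ratio for each K-Ras variant.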
A general note: In TR-FRET formats the signal depends on donor and acceptor labels being close together.

The target of another test is T2, K-Ras G12V (Homo sapiens, UniProt P01116, G12V).
T2 construct: made in house; host or cells: E. coli, e.g. BL21 (DE3)
Put plainly: PPI-HTRF assay, K-Ras G12V / SOS1 interaction. Type of test: biochemical. To be noted: HTRF, K-Ras G12V; read-out: PPI-HTRF-5 nM (K-Ras G12V IC50). Summed up: as §1

For the next test, the target named is T3, K-Ras G12D (Homo sapiens, UniProt P01116, G12D).
T3 construct: made in house; host or cells: E. coli, e.g. BL21 (DE3)
Put plainly: PPI-HTRF assay, K-Ras G12D / SOS1 interaction. Type of test: biochemical. The following applies: HTRF, K-Ras G12D; read-out: PPI-HTRF-5 nM (K-Ras G12D IC50). The method in brief: as §1

Another test addresses T4, wildtype K-Ras (Homo sapiens, UniProt P01116).
T4 construct: made in house; host or cells: E. coli, e.g. BL21 (DE3)
Put plainly: PPI-HTRF assay, wildtype K-Ras / SOS1 interaction. The test is classed as biochemical. The following applies: HTRF, K-Ras wt; read-out: PPI-HTRF-5 nM (K-Ras wt IC50). Summed up:
as §1

The next test deals with SW620 cells. Nature of the test: Ras cellular assay, cell proliferation SW620. Type of test: cell-based. To be noted: Homo sapiens, SW-620. From the text: For example, this assay can be also used to assess selective growth inhibition of a mutant Ras protein relative to a wildtype, or relative to a different mutant Ras protein.
The next test has as its system A549 cells. Nature of the test: Ras cellular assay, cell proliferation A549. Type of test: cell-based. The following applies: Homo sapiens. Summed up:
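G12S-mutant A549 cells (800/well) in RPMI-1640 plus 10% heat-inactivated FBS, standard or ultra-low attachment 384-well plates, dosed the day after plating with a 10-point 3-fold series. Viability by CellTiter-Glo luminescence about 6 days later; IC50 from four-parameter fit.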

T4 sequence (P01116 1-188 isoform P01116-2): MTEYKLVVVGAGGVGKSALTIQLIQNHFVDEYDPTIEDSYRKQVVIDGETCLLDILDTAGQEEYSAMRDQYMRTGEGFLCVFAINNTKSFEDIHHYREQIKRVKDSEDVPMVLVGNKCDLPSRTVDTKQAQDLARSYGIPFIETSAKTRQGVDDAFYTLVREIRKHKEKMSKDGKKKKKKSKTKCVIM
T1 sequence (P01116 1-188 isoform P01116-2 G12S): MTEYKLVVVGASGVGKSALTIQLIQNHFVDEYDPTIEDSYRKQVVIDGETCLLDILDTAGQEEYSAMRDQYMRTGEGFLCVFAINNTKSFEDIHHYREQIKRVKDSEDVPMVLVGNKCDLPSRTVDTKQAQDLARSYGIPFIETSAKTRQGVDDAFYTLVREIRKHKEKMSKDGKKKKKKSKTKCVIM
T3 sequence (P01116 1-188 isoform P01116-2 G12D): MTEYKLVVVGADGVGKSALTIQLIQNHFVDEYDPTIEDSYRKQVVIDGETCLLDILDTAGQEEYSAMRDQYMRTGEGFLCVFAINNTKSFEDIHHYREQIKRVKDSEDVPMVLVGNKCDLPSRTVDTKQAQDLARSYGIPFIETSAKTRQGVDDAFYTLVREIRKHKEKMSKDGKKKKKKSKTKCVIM
T2 sequence (P01116 1-188 isoform P01116-2 G12V): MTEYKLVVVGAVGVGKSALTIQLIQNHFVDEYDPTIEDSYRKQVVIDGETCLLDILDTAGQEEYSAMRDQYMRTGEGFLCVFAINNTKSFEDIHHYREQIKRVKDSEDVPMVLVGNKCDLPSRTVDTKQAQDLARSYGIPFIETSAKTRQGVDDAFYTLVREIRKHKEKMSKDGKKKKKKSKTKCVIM

What is called IC50 is the midpoint of a concentration-inhibition curve. Regarding `N#Cc1c(N)sc2c(F)ccc(-c3c(Cl)c4c5c(nc(OC[C@@]67CCCN6C[C@H](F)C7)nc5c3F)N3[C@H](CCO4)C[C@@H]4OCC[C@@H]43)c12` [compound 200, 2-amino-4-((6aR,7aS,10aS)-3-chloro-1-fluoro-13-(((2R,7aS)-2-fluorotetrahydro-1H-pyrrolizin-7a(5H)-yl)methoxy)-5,6,6a,7,7a,9,10,10a-octahydrofuro[2″,3″:4′,5′]pyrrolo[1′,2′:5,6][1,5]oxazocino[4,3,2-de]quinazolin-2-yl)-7-fluorobenzo[b]thiophene-3-carbonitrile], the IC50 with GP2D cells, on K-Ras G12S, at K-Ras G12V, on K-Ras G12D, on wildtype K-Ras and with SW620 cells was less than 5 µM throughout. The same molecule registered an IC50 in the test on A549 cells of less than 5 µM.

For the molecule `N#Cc1c(N)sc2c(F)ccc(-c3c(Cl)c4c5c(nc(OC[C@@]67CCCN6C[C@H](F)C7)nc5c3F)N3CC[C@@H]3CO4)c12` [compound 139, 2-amino-4-((11aR)-9-chloro-7-fluoro-5-(((2R,7aS)-2-fluorotetrahydro-1H-pyrrolizin-7a(5H)-yl)methoxy)-1,2,11,11a-tetrahydroazeto[2′,1′:3,4][1,4]oxazepino [5,6,7-de]quinazolin-8-yl)-7-fluorobenzo[b]thiophene-3-carbonitrile], the IC50 with GP2D cells, at K-Ras G12S, at K-Ras G12V, on K-Ras G12D, on wildtype K-Ras and with SW620 cells was less than 5 µM throughout. In the test on A549 cells, this molecule yielded an IC50 greater than 5 µM.

Turning to `N#Cc1c(N)sc2c(F)ccc(-c3c(Cl)c4c5c(nc(OCC67CCCN6C[C@H](F)C7)nc5c3F)N3CCCC[C@@H]3CO4)c12` (stereo partly drawn) [compound 103, 2-amino-4-((5aR)-3-chloro-1-fluoro-12-(((2R)-2-fluorotetrahydro-1H-pyrrolizin-7a(5H)-yl)methoxy)-5,5a,6,7,8,9-hexahydropyrido[2′,1′:3,4][1,4]oxazepino [5,6,7-de]quinazolin-2-yl)-7-fluorobenzo[b]thiophene-3-carbonitrile], the IC50 in the test on GP2D cells, at K-Ras G12S, at K-Ras G12V, at K-Ras G12D, at wildtype K-Ras and in the test with SW620 cells was less than 5 µM each time. The same molecule had an IC50 with A549 cells of less than 5 µM.

As for `N#Cc1c(N)sc2c(F)ccc(-c3c(Cl)c4c5c(nc(OC[C@@]67CCCN6C[C@H](F)C7)nc5c3F)N3CCN(C=O)CCC3CO4)c12` (stereo partly drawn) [compound 152, 2-amino-4-(12-chloro-10-fluoro-8-(((2R,7aS)-2-fluorotetrahydro-1H-pyrrolizin-7a(5H)-yl)methoxy)-3-formyl-2,3,4,5,14,14a-hexahydro-1H-[1,4]diazepino[7′,1′:3,4][1,4]oxazepino[5,6,7-de]quinazolin-11-yl)-7-fluorobenzo[b]thiophene-3-carbonitrile], the IC50 with GP2D cells, on K-Ras G12S, on K-Ras G12V, at K-Ras G12D, on wildtype K-Ras and in the test on SW620 cells was less than 5 µM each time. Besides, the IC50 with A549 cells was less than 5 µM.

As to `N#Cc1c(N)sc2c(F)ccc(-c3c(Cl)c4c5c(nc(OC[C@@]67CCCN6C[C@H](F)C7)nc5c3F)N3CCC(C#N)CC3CO4)c12` (stereo partly drawn) [compound 205, 5-(2-amino-3-cyano-7-fluorobenzo[b]thiophen-4-yl)-6-chloro-4-fluoro-2-(((2R,7aS)-2-fluorotetrahydro-1H-pyrrolizin-7a(5H)-yl)methoxy)-8,8a,9,10,11,12-hexahydropyrido[2′,1′:3,4][1,4]oxazepino [5,6,7-de]quinazoline-10-carbonitrile], the IC50 in the test on GP2D cells, on K-Ras G12S, on K-Ras G12V, on K-Ras G12D, on wildtype K-Ras and in the test on SW620 cells was less than 5 µM throughout. In the test with A549 cells, this molecule had an IC50 of less than 5 µM.

For the molecule `N#Cc1c(N)sc2c(F)ccc(-c3c(Cl)c4c5c(nc(OC[C@@]67CCCN6C[C@H](F)C7)nc5c3F)N3[C@H](CO4)C[C@@H]4OCC[C@@H]43)c12` [compound 133, 2-amino-4-((5aS,6aS,9aS)-3-chloro-1-fluoro-12-(((2R,7aS)-2-fluorotetrahydro-1H-pyrrolizin-7a(5H)-yl)methoxy)-5a,6,6a,8,9,9a-hexahydro-5H-furo[2″,3″:4′,5′]pyrrolo[2′,1′:3,4][1,4]oxazepino[5,6,7-de]quinazolin-2-yl)-7-fluorobenzo[b]thiophene-3-carbonitrile], the IC50 in the test with GP2D cells, at K-Ras G12S, on K-Ras G12V, on K-Ras G12D, at wildtype K-Ras and with SW620 cells was less than 5 µM each time. The IC50 in the test on A549 cells is less than 5 µM.

Regarding `N#Cc1c(N)sc2c(F)ccc(-c3c(Cl)c4c5c(nc(OC[C@@]67CCCN6C[C@H](F)C7)nc5c3F)N3CCC[C@H]3CCO4)c12` [compound 115, 2-amino-4-((13aS)-10-chloro-8-fluoro-6-(((2R,7aS)-2-fluorotetrahydro-1H-pyrrolizin-7a(5H)-yl)methoxy)-1,2,3,12,13,13a-hexahydropyrrolo[1′,2′:5,6][1,5]oxazocino [4,3,2-de]quinazolin-9-yl)-7-fluorobenzo[b]thiophene-3-carbonitrile], the IC50 in the test on GP2D cells, at K-Ras G12S, at K-Ras G12V, at K-Ras G12D, at wildtype K-Ras and with SW620 cells was less than 5 µM throughout. This molecule gave an IC50 with A549 cells of less than 5 µM.

As for `N#Cc1c(N)sc2c(F)ccc(-c3c(Cl)c4c5c(nc(OC[C@@]67CCCN6C[C@H](F)C7)nc5c3F)N3CC(F)(F)C[C@@H]3CO4)c12` [compound 176, 2-amino-4-((8aR)-6-chloro-4,10,10-trifluoro-2-(((2R,7aS)-2-fluorotetrahydro-1H-pyrrolizin-7a(5H)-yl)methoxy)-8a,9,10,11-tetrahydro-8H-pyrrolo[2′,1′:3,4][1,4]oxazepino[5,6,7-de]quinazolin-5-yl)-7-fluorobenzo[b]thiophene-3-carbonitrile], the IC50 in the test with GP2D cells, at K-Ras G12S, at K-Ras G12V, at K-Ras G12D, on wildtype K-Ras and in the test with SW620 cells was less than 5 µM in each case. Moreover, the IC50 with A549 cells is less than 5 µM.

As to `N#Cc1c(N)sc2c(F)ccc(-c3c(Cl)c4c5c(nc(OC[C@@]67CCCN6C[C@H](F)C7)nc5c3F)N3CCCC(O)C3CO4)c12` (stereo partly drawn) [compound 157, 2-amino-4-(6-chloro-4-fluoro-2-(((2R,7aS)-2-fluorotetrahydro-1H-pyrrolizin-7a(5H)-yl)methoxy)-9-hydroxy-8,8a,9,10,11,12-hexahydropyrido[2′,1′:3,4][1,4]oxazepino [5,6,7-de]quinazolin-5-yl)-7-fluorobenzo[b]thiophene-3-carbonitrile], the IC50 in the test on GP2D cells, at K-Ras G12S, at K-Ras G12V, at K-Ras G12D, at wildtype K-Ras and in the test on SW620 cells was less than 5 µM in each case. The molecule further showed an IC50 with A549 cells of less than 5 µM.
